Test results taken from patent publication US9802937B2, “Substituted pyrazolo{4,3-D}pyrimidines as kinase inhibitors” (ORIGENIS GMBH, priority 2011, dated 2017).

Columns and labels:
SYK kinase = biological target: T1, SYK kinase (Homo sapiens, UniProt P43405); assay: SYK Assay (OMNIA KINASE ASSAY, SOX peptide fluorescence); format: biochemical; conditions: apparent Ki calculated from the IC50 using the Cheng-Prusoff equation; 1 mM ATP, 30° C.; read-out: SYK Activities: Ki
T1 construct: purchased Invitrogen, Carlsbad
How it was run: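 Continuous Omnia assay: SYK phosphorylation of SOX-labelled Tyr 7 peptide (10 µM) with 1 mM ATP and 0.2 mM DTT at 30 °C. Fluorescence (ex 360/em 485 nm) read every 30 s for 30 min. Reaction velocity versus inhibitor concentration gives IC50, converted to apparent Ki by Cheng-Prusoff.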

LRRK2 = LRRK2 (Homo sapiens, UniProt Q5S007); assay: LRRK2-LRRK2 G2019S-Assay (LanthaScreen Eu Kinase Binding Assay); conditions: 5 nM LRRK2 or their mutants, 10 nM tracer 236, RT 1 h; read-out: LRRK2 Activities: IC50
Sequence of LRRK2 (Q5S007 970-2527 limits assumed): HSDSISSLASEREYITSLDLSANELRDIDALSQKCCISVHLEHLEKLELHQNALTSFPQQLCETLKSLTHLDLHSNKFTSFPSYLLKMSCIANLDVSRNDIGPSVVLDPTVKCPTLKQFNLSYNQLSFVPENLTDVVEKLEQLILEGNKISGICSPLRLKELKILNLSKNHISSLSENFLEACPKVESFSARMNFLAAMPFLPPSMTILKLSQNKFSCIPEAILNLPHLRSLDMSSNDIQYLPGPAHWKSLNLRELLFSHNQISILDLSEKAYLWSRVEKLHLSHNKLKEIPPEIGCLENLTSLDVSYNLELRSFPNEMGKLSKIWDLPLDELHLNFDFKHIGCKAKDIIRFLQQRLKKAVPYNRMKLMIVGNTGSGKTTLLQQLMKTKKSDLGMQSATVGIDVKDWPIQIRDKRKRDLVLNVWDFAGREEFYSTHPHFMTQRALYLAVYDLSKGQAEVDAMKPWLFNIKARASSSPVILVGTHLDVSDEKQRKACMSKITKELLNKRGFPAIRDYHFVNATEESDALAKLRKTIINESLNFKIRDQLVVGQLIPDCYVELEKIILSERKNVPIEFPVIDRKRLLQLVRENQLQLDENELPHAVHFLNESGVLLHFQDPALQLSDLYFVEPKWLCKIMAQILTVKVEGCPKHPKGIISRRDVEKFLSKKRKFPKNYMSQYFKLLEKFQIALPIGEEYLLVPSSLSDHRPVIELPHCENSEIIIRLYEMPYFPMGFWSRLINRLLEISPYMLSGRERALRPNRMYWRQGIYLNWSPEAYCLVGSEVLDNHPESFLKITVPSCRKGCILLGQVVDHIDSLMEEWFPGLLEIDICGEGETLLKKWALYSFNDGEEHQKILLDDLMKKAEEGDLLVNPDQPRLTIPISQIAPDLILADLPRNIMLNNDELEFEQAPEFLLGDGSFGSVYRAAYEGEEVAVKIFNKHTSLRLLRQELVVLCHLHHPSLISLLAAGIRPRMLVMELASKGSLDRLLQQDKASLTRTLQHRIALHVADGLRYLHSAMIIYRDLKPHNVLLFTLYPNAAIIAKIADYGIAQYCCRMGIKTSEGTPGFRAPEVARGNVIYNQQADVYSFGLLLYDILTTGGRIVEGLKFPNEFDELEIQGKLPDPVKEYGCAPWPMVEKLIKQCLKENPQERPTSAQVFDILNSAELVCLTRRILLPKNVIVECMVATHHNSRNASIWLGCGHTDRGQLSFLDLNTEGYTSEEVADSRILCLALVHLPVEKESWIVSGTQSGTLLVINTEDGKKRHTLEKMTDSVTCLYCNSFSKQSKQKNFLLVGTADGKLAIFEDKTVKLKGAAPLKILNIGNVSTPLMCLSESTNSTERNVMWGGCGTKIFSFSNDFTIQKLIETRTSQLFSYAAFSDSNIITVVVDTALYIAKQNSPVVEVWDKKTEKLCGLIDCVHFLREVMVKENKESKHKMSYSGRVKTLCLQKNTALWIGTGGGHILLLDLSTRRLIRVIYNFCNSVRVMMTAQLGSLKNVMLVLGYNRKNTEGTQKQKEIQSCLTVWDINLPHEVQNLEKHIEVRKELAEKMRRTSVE
Description: In the assay LanthaScreen™ Eu Kinase Binding Assay by Invitrogen Corporation (Carlsbad) the effect of invention of a compound on the phosphorylation is determined by measurement of fluorescence intensity emission ratio based on the binding and displacement of a proprietary, Alexa Fluor® 647-labeled, ATP-competitive kinase inhibitor scaffold (kinase tracer) to the kinase of interest. Binding of the tracer to the kinase is detected using a europium-labeled anti-tag antibody, which binds to the kinase of interest. Simultaneous binding of both the tracer and antibody to the kinase results in a high degree of FRET (fluorescence resonance energy transfer) from the europium (Eu) donor fluorophore to the Alexa Fluor® 647 acceptor fluorophore on the kinase tracer. Binding of an inhibitor to the kinase competes for binding with the tracer, resulting in a loss of FRET. The fluorescence intensity ratio is directly proportional to the amount of peptide phosphorylation.
To the wells of an 384 well small volume plate (Greiner, Frickenhausen) are added (i) the compound under test in 5% DMSO/distilled water (5 μl), (ii) 5 μl of the kinase antibody mixture resulting in a final concentration 5 nM LRRK2 or their mutants, 2 nM EU-Anti-GST antibody in 1× kinase buffer A. The reaction was started with addition of (iii) 5 μl resulting in a final concentration of 10 nM tracer 236. The assay plate was incubated at RT for 1 h and fluorescence intensitiy readings were collected using a TECAN M1000 at two wavelengthes of λex 340/λem 615 nm and λex 340/λm 665 nm with a delay time of 100 μs and an integration time of 200 μs after 60 minutes. The emission ratio was calculated by division of the acceptor/tracer emission ([…]) by the antibody/donor emission ([…]). The inhibitor concentration was plotted versus the emission ratio to determine the IC50 using XLFit 5.0 (IDBS, Guildford) to fit to a sigmoidal dose response curve with a variable slope.

Row | Compound | Ki (SYK kinase) [nM] | IC50 (LRRK2) [nM]
1 | COc1ccc(Nc2nc(C3CCN(C)CC3)nc3cn[nH]c23)cc1OC [Example #51, N-(3,4-dimethoxyphenyl)-5-(1-methylpiperidin-4-yl)-1H-pyrazolo[4,3-d]pyrimidin-7-amine] | 10 to 100 | 100 to 1000
2 | COc1ccc(-c2nc(Nc3ccc(N4CCOCC4)cc3)c3[nH]ncc3n2)cc1 [Example #59, 5-(4-methoxyphenyl)-N-(4-morpholinophenyl)-1H-pyrazolo[4,3-d]pyrimidin-7-amine] | < 10 | 10 to 100
3 | COc1cccc(-c2nc(Nc3ccc(OC)c(OC)c3)c3[nH]ncc3n2)c1 [Example #60, N-(3,4-dimethoxyphenyl)-5-(3-methoxyphenyl)-1H-pyrazolo[4,3-d]pyrimidin-7-amine] | < 10 | 100 to 1000
4 | COc1cccc(-c2nc(Nc3ccc(N4CCOCC4)cc3)c3[nH]ncc3n2)c1 [Example #61, 5-(3-methoxyphenyl)-N-(4-morpholinophenyl)-1H-pyrazolo[4,3-d]pyrimidin-7-amine] | < 10 | 100 to 1000
5 | COc1cccc(-c2nc(Nc3ccc(N(C)C)cc3)c3[nH]ncc3n2)c1 [Example #63, N1-(5-(3-methoxyphenyl)-1H-pyrazolo[4,3-d]pyrimidin-7-yl)-N4,N4-dimethylbenzene-1,4-diamine] | < 10 | 100 to 1000
6 | c1ccc(-c2nc(Nc3ccc4c(c3)NCCO4)c3[nH]ncc3n2)cc1 [Example #64, N-(5-phenyl-1H-pyrazolo[4,3-d]pyrimidin-7-yl)-3,4-dihydro-2H-benzo[b][1,4]oxazin-6-amine] | < 10 | 10 to 100
7 | Oc1cccc(Nc2nc(-c3ccccc3)nc3cn[nH]c23)c1 [Example #65, 3-((5-phenyl-1H-pyrazolo[4,3-d]pyrimidin-7-yl)amino)phenol] | 10 to 100 | 100 to 1000
8 | COc1ccc(-c2nc(Nc3ccc(N4CCN(C)CC4)cc3)c3[nH]ncc3n2)cc1 [Example #66, 5-(4-methoxyphenyl)-N-(4-(4-methylpiperazin-1-yl)phenyl)-1H-pyrazolo[4,3-d]pyrimidin-7-amine] | < 10 | 100 to 1000
9 | COc1cccc(-c2nc(Nc3ccc4cn[nH]c4c3)c3[nH]ncc3n2)c1 [Example #67, N-(1H-indazol-6-yl)-5-(3-methoxyphenyl)-1H-pyrazolo[4,3-d]pyrimidin-7-amine] | < 10 | 100 to 1000
10 | c1csc(-c2nc(Nc3ccc(N4CCOCC4)cc3)c3[nH]ncc3n2)c1 [Example #69, N-(4-morpholinophenyl)-5-(thiophen-2-yl)-1H-pyrazolo[4,3-d]pyrimidin-7-amine] | < 10 | 10 to 100
11 | CN(C)c1ccc(Nc2nc(-c3cccs3)nc3cn[nH]c23)cc1 [Example #71, N1,N1-dimethyl-N4-(5-(thiophen-2-yl)-1H-pyrazolo[4,3-d]pyrimidin-7-yl)benzene-1,4-diamine] | < 10 | 10 to 100
12 | COc1ccc(Nc2nc(-c3ccsc3)nc3cn[nH]c23)cc1OC [Example #72, N-(3,4-dimethoxyphenyl)-5-(thiophen-3-yl)-1H-pyrazolo[4,3-d]pyrimidin-7-amine] | < 10 | 10 to 100
13 | c1cc(-c2nc(Nc3ccc(N4CCOCC4)cc3)c3[nH]ncc3n2)cs1 [Example #73, N-(4-morpholinophenyl)-5-(thiophen-3-yl)-1H-pyrazolo[4,3-d]pyrimidin-7-amine] | < 10 | 10 to 100
14 | CN(C)c1ccc(Nc2nc(-c3ccsc3)nc3cn[nH]c23)cc1 [Example #75, N1,N1-dimethyl-N4-(5-(thiophen-3-yl)-1H-pyrazolo[4,3-d]pyrimidin-7-yl)benzene-1,4-diamine] | < 10 | 10 to 100
15 | c1cc(-c2nc(Nc3ccc4cn[nH]c4c3)c3[nH]ncc3n2)cs1 [Example #76, N-(1H-indazol-6-yl)-5-(thiophen-3-yl)-1H-pyrazolo[4,3-d]pyrimidin-7-amine] | < 10 | 10 to 100
16 | c1cc(-c2nc(Nc3cc(C4CC4)[nH]n3)c3[nH]ncc3n2)cs1 [Example #77, N-(5-cyclopropyl-1H-pyrazol-3-yl)-5-(thiophen-3-yl)-1H-pyrazolo[4,3-d]pyrimidin-7-amine] | 10 to 100 | 10 to 100

Row | Compound | Ki (SYK kinase) [nM] | IC50 (LRRK2) [nM]
17 | COc1ccc(-c2nc(Nc3ccc(N(C)C)cc3)c3[nH]ncc3n2)cc1 [Example #78, N1-(5-(4-methoxyphenyl)-1H-pyrazolo[4,3-d]pyrimidin-7-yl)-N4,N4-dimethylbenzene-1,4-diamine] | < 10 | 100 to 1000
18 | COc1ccc(-c2nc(Nc3ccc4cn[nH]c4c3)c3[nH]ncc3n2)cc1 [Example #79, N-(1H-indazol-6-yl)-5-(4-methoxyphenyl)-1H-pyrazolo[4,3-d]pyrimidin-7-amine] | < 10 | 10 to 100
19 | COc1ccc(-c2nc(Nc3cccc(O)c3)c3[nH]ncc3n2)cc1 [Example #80, 3-((5-(4-methoxyphenyl)-1H-pyrazolo[4,3-d]pyrimidin-7-yl)amino)phenol] | 10 to 100 | 100 to 1000
20 | COc1cccc(-c2nc(Nc3cccc(O)c3)c3[nH]ncc3n2)c1 [Example #81, 3-((5-(3-methoxyphenyl)-1H-pyrazolo[4,3-d]pyrimidin-7-yl)amino)phenol] | 10 to 100 | 100 to 1000
21 | c1csc(-c2nc(Nc3ccc4cn[nH]c4c3)c3[nH]ncc3n2)c1 [Example #82, N-(1H-indazol-6-yl)-5-(thiophen-2-yl)-1H-pyrazolo[4,3-d]pyrimidin-7-amine] | < 10 | < 10
22 | c1cc(-c2nc(Nc3ccc4c(c3)NCCO4)c3[nH]ncc3n2)cs1 [Example #84, N-(5-(thiophen-3-yl)-1H-pyrazolo[4,3-d]pyrimidin-7-yl)-3,4-dihydro-2H-benzo[b][1,4]oxazin-6-amine] | < 10 | 10 to 100
23 | Oc1cccc(Nc2nc(-c3ccsc3)nc3cn[nH]c23)c1 [Example #85, 3-((5-(thiophen-3-yl)-1H-pyrazolo[4,3-d]pyrimidin-7-yl)amino)phenol] | 10 to 100 | 100 to 1000
24 | COc1ccc(-c2nc(Nc3cc(C4CC4)[nH]n3)c3[nH]ncc3n2)cc1 [Example #86, N-(5-cyclopropyl-1H-pyrazol-3-yl)-5-(4-methoxyphenyl)-1H-pyrazolo[4,3-d]pyrimidin-7-amine] | 10 to 100 | 100 to 1000
25 | COc1ccc(-c2nc(Nc3ccc4c(c3)NCCO4)c3[nH]ncc3n2)cc1 [Example #87, N-(5-(4-methoxyphenyl)-1H-pyrazolo[4,3-d]pyrimidin-7-yl)-3,4-dihydro-2H-benzo[b][1,4]oxazin-6-amine] | < 10 | 10 to 100
26 | COc1cccc(-c2nc(Nc3cc(C4CC4)[nH]n3)c3[nH]ncc3n2)c1 [Example #88, N-(5-cyclopropyl-1H-pyrazol-3-yl)-5-(3-methoxyphenyl)-1H-pyrazolo[4,3-d]pyrimidin-7-amine] | 100 to 1000 | 100 to 1000
27 | COc1cccc(-c2nc(Nc3ccc4c(c3)NCCO4)c3[nH]ncc3n2)c1 [Example #89, N-(5-(3-methoxyphenyl)-1H-pyrazolo[4,3-d]pyrimidin-7-yl)-3,4-dihydro-2H-benzo[b][1,4]oxazin-6-amine] | 10 to 100 | 10 to 100
28 | CN1CCC(c2nc(Nc3ccc4c(c3)NCCO4)c3[nH]ncc3n2)CC1 [Example #93, N-(5-(1-methylpiperidin-4-yl)-1H-pyrazolo[4,3-d]pyrimidin-7-yl)-3,4-dihydro-2H-benzo[b][1,4]oxazin-6-amine] | 10 to 100 | 100 to 1000
29 | COc1ccc(Nc2nc(-c3nc4ccccc4s3)nc3cn[nH]c23)cc1OC [Example #96, 5-(benzo[d]thiazol-2-yl)-N-(3,4-dimethoxyphenyl)-1H-pyrazolo[4,3-d]pyrimidin-7-amine] | 10 to 100 | 100 to 1000
30 | COc1ccc(Nc2nc(-c3cccc(-c4cccnc4)c3)nc3cn[nH]c23)cc1OC [Example #101, N-(3,4-dimethoxyphenyl)-5-(3-(pyridin-3-yl)phenyl)-1H-pyrazolo[4,3-d]pyrimidin-7-amine] | 10 to 100 | 100 to 1000
31 | COc1ccccc1-c1nc(Nc2ccc(N3CCN(C)CC3)cc2)c2[nH]ncc2n1 [Example #108, 5-(2-methoxyphenyl)-N-(4-(4-methylpiperazin-1-yl)phenyl)-1H-pyrazolo[4,3-d]pyrimidin-7-amine] | 10 to 100 | 100 to 1000
32 | COc1ccc(Nc2nc(-c3ccccc3OC)nc3cn[nH]c23)cc1OC [Example #109, N-(3,4-dimethoxyphenyl)-5-(2-methoxyphenyl)-1H-pyrazolo[4,3-d]pyrimidin-7-amine] | 10 to 100 | 100 to 1000
